According to article PMC9727064, “Performance assessment and economic analysis of a human Liver-Chip for predictive toxicology” (Communications Medicine, 2022):

Assays:
[1] = tested on: human Liver-Chip (primary human hepatocytes); assay: Liver-Chip albumin production in top channel effluent (ELISA); format: cell-based; details: for Albumin change in words: Liver-Chip effluent
Excerpt: Cycles 1 to 4 tested 6–8 concentrations in duplicate for each of 10–13 drugs. To determine which sampling strategy was optimal for cycles 1 to 4 (16 doses × 1 replicate, 8 × 2, 5 × 3, or 4 × 4), we generated three different “dose-response” synthetic datasets, each distorted by different noise levels (low, medium, or high). For each of these datasets, we performed curve-fitting analyses and calculated the Root Mean Square Error between the “true” and estimated IC50 parameter. […] Some drugs were also repeated across cycles (on different donors or at different concentrations) to ensure experimental robustness. However, to replicate a more typical study design likely to be carried out by scientists in the pharmaceutical industry, we created cycle 5 with 6 drugs, where each was tested in 4 concentrations in triplicate. For each cycle, chips were dosed with drug over 8 days (referred to as Day 0 through Day 7).
The drug dosing concentrations were determined from the unbound human Cmax of each drug. First, the expected fraction of drug unbound in media with 2% FBS was extrapolated from plasma binding data for each drug. Dosing concentrations were then back calculated such that the unbound fraction in media would reflect relevant multiples of unbound human Cmax (Supplementary Data 1).
On the first dosing day (Day 0), all chips were imaged using the ECHO microscope. Five hundred microliters of effluent was collected from all four reservoirs of the pod and placed in a labeled 96-well plate. After collection, all the remaining media was carefully aspirated before dosing with 3.8 mL of corresponding dosing solution. Dosing occurred on study days 0, 2, and 4 for chips flowing at 30 µL/h, and on days 0, 1, 2, 3, 4, 5, and 6 for chips flowing at 150 µL/h. Effluent collection occurred on days 1, 3, and 7.
Top channel outlet effluents were analyzed to quantify albumin and alanine transaminase (ALT) levels on days 1, 3, and 7 using sandwich ELISA kits (Abcam, Albumin ab179887, ALT ab234578) according to vendor-provided protocols. Frozen (−80 °C) effluent samples were thawed overnight at 4 °C prior to assay. The Hamilton Vantage liquid handling platform was used to manage effluent dilutions (1:500 for albumin, neat for ALT), preparation of standard curves, and addition of antibody cocktail. Absorbance at 450 nm was measured using the SynergyNeo Microplate Reader (BioTek).
All statistical analyses were conducted in R[21] (version 4.1.2) and figures were produced using the R package ggplot2[22] (version 3.3.5). The dose-response analysis (Fig. 4) was carried out using the popular drc R package developed by Ritz et al.[23] using the generalized log-logistic dose-response model. The error bars in Figs. 3 and 4, correspond to the standard errors of the mean. The circles in Fig. 3 correspond to the samples used to calculate the corresponding statistics. The analysis of significance in Fig. 3 was performed using paired t-test across different days (same donor) and unpaired t-test across different donors (same day). In Fig. 3 the number of samples used were n = 3 for donor two, and n = 4 for donor three. For both donors, the number of the freshly thawed hepatocyte samples used to estimate the corresponding log2(Fold Change) were n = 4. Finally, the analysis of significance in Fig. 3 was performed using paired t-test.

[2] = tested on: human Liver-Chip (hepatocyte layer); assay: Liver-Chip immunofluorescence imaging (caspase 3/7, TMRM, AdipoRed/LipidTOX); format: cell-based; details: for Immunofluorescence staining result in words: caspase 3/7 (apoptosis) or TMRM (mitotoxicity), 7 days
Experimental: Chips were detached from pods and washed once with PBS. […] Afterwards, chips were washed with PBS and stored at 4 °C until staining. Following fixation, chips corresponding to low, medium, and high concentrations from each group were cut in half with a razor blade perpendicular to the co-culture channels. One half was used in the following staining protocol, while the other half was stored for future staining. All stains and washes utilized the bubble method, in which a small amount of air is flowed through the channel prior to bulk wash media to prevent a liquid-liquid dilution of the staining solution. […] Following 15 minutes of incubation at room temperature, each channel was washed with 200 µL of PBS (alternating channels, 2× for top and 3× for bottom). As an alternative lipid accumulation marker, 100 µL of HCS LipidTOX Deep Red (ThermoFisher, H34477) was diluted 1:1000 v/v in PBS with NucBlue counterstain and added to the top channel. After a 30 min incubation at room temperature, the chips were again allowed to reach room temperature before the channels were alternatively washed with 200 µL of PBS, the bottom channel undergoing three washes and the top channel undergoing two. Chips were then imaged using the Opera Phenix. Following lipid and DAPI staining and imaging, chips were stained with a […] (MRP2) antibody to visualize the bile canalicular structures characteristic of healthy Liver-Chips. […] Then, each channel was washed with 200 µL of PBS (alternating channels, 2× for top and 3× for bottom). […] Next, primary antibody Mouse anti-MRP2 (Abcam, ab3373) was prepared 1:100 in the original blocking buffer, diluted 1:4 in PBS. 100 µL of solution was added to each channel, and chips were stored overnight at 4 °C. The following day, each channel was washed with 200 µL of PBS (alternating channels, 2× for top and 3× for bottom). […] 100 µL of solution was added to each channel and chips incubated at room temperature, protected from light, for two hours. Then, each channel was washed with 200 µL of PBS (alternating channels, 2× for top and 3× for bottom). Chips were imaged immediately or stored at 4 °C until ready for imaging on the Opera Phenix. Chip replicates designated for live cell imaging were washed with PBS utilizing the bubble method. Chips were then cut in half perpendicular to the co-culture channels. […] The bottom chips halves were stained with NucBlue (Thermo) to visualize nuclei and Tetramethylrhodamine, methyl ester (TMRM) (ThermoFisher, I34361) to visualize active mitochondria. This staining panel was prepared in PBS with 5% FBS, with NucBlue at 2 drops per mL and TMRM at a 1:1000 ratio in original blocking buffer, diluted 1:4 in PBS. Chips were incubated in the dark at 37 °C for 30 min, and then each channel was washed with 200 µL of PBS (alternating channels, 2× for top and 3× for bottom). The chips were kept at 37 °C, protected from light, until ready for imaging with the Opera Phenix. Fluorescent confocal image acquisition was performed using the Opera Phenix High-Content Screening System and Harmony 4.9 Imaging and Analysis Software (PerkinElmer). Before acquisition, the Phenix internal environment was set to 37 °C and 5% CO2. […] Whole chips were placed directly into each slot, while top and bottom half chips were matched and combined in one chip slot. Chips were aligned flush with the adapter and one another. Any bubbles identified from visual inspection were washed out with PBS. Once ready, the stained chips were covered with transparent plate film to seal channel ports and loaded into the Phenix. […] Z-stacks were generated with 3.6 µm between slices for 28–32 planes so that the epithelium was located around the center of the stack. […] Raw images from fixed and live imaging were exported in TIFF format from the Harmony software. Using scripts written for FIJI (ImageJ), TIFFs across three color channels and multiple z-stacks were compiled into composite images for each field of view in each chip. […]

[3] = expanded drug list, lowest multiplier causing a 50% reduction in albumin production
[4] = day 7 post-drug administration, hepatocyte layer, top channel
[5] = concentration causing a 50% reduction in albumin production

SMILES | Albumin IC50 Donor 1 [1, 3] | Albumin IC50 Donor 2 [1, 3] | Immunofluorescent findings, donor one (Supplementary Figure 3) [2, 4] | Immunofluorescent findings, donor two (Supplementary Figure 3) [2, 4] | IF imaging Donor 1 ([2]; expanded drug list) | IF imaging Donor 2 ([2]; expanded drug list) | Albumin change in words [1] | Immunofluorescence staining result in words [2] | Albumin IC50 Donor 1 [1, 5] | Albumin IC50 Donor 2 [1, 5] | IF imaging Donor 1 ([2]; matched pair analysis) | IF imaging Donor 2 ([2]; matched pair analysis) | Albumin IC50 Donor 3 ([1]; concentration causing a 50% reduction in albumin production, donor 3) | Immunofluorescent findings, donor three (Supplementary Figure 3) ([2]; day 7 post-drug administration, hepatocyte layer, top channel, donor three) | IF imaging Donor 3 ([2]; matched pair analysis, donor 3)
Cc1cn([C@H]2C=C[C@@H](CO)O2)c(=O)[nH]c1=O [Stavudine] | > 60 unbound human Cmax multiplier | 132 unbound human Cmax multiplier | No findings | Mitotoxicity | No findings | Mitotoxicity |  |  |  |  |  |  |  |  | 
Nc1c2c(nc3ccccc13)CCCC2 [Tacrine] |  |  | Apoptosis |  | Apoptosis | Apoptosis | not associated with any release of ALT or decline in albumin | increased caspase 3/7 staining |  |  |  |  |  |  | 
CC[C@H]1OC(=O)[C@H](C)C(=O)[C@H](C)[C@@H](O[C@@H]2O[C@H](C)C[C@H](N(C)C)[C@H]2O)[C@](C)(OC)C[C@@H](C)C(=O)[C@H](C)[C@H]2N(CCCCn3cnc(-c4cccnc4)c3)C(=O)O[C@]12C [Telithromycin] | 13 unbound human Cmax multiplier |  | Apoptosis |  | Apoptosis |  | decrease in albumin | apoptosis-mediated cell death |  |  |  |  |  |  | 
Cc1ccc(C(=O)c2cc(O)c(O)c([N+](=O)[O-])c2)cc1 [Tolcapone] |  |  | Mitotoxicity | Mitotoxicity |  |  |  |  | 3 multiples of the unbound human Cmax | 39 multiples of the unbound human Cmax | Mitotoxicity | Mitotoxicity |  |  | 
Cc1c(C)c2c(c(C)c1O)CCC(C)(COc1ccc(CC3SC(=O)NC3=O)cc1)O2 (centres unmarked) [Troglitazone] |  |  | Apoptosis | Apoptosis |  |  |  |  | 24 multiples of the unbound human Cmax | 122 multiples of the unbound human Cmax | Apoptosis | Apoptosis |  |  | 
N[C@@H]1[C@H]2CN(c3nc4c(cc3F)c(=O)c(C(=O)O)cn4-c3ccc(F)cc3F)C[C@@H]12 [Trovafloxacin] |  |  | Apoptosis | Apoptosis |  |  |  | concentration-dependent increases in caspase 3/7 staining | 82 multiples of the unbound human Cmax | 78 multiples of the unbound human Cmax | Apoptosis | Apoptosis | 31 multiples of the unbound human Cmax | Apoptosis | Apoptosis
CCOC(=O)CN[C@@H](C(=O)N1CC[C@H]1C(=O)NCc1ccc(/C(N)=N\O)cc1)C1CCCCC1 [Ximelagatran] | 32 unbound human Cmax multiplier | > 300 unbound human Cmax multiplier | No findings | No findings | No findings | No findings |  |  |  |  |  |  |  |  | 
CC(c1cc2ccccc2s1)N(O)C(N)=O (centres unmarked) [Zileuton] | > 100 unbound human Cmax multiplier | 210 unbound human Cmax multiplier | No findings | No findings | No findings | No findings |  |  |  |  |  |  |  |  | 
